Results from patent US8039490B2, “Benzoyl-piperidine derivatives as dual modulators of the 5-HT2A and D3 receptors” (Hoffmann-La Roche Inc., priority 2006, dated 2011).

Assays:
[1] = biological target: T1, human D3 dopamine receptor (Homo sapiens, UniProt P35462); test: Radioligand binding, human D3 receptor ([3H]-spiperone); settings: first value of the cell; membranes of transfected HEK-293 EBNA cells, 0.5 nM [3H]-spiperone; read-out: Ki(nM) D3/5HT2A/D2: D3
T1 construct: expressed in transfected cells; host or cells: HEK-293 EBNA cells (transient transfection), membrane preparation
T1 sequence (P35462 whole entry): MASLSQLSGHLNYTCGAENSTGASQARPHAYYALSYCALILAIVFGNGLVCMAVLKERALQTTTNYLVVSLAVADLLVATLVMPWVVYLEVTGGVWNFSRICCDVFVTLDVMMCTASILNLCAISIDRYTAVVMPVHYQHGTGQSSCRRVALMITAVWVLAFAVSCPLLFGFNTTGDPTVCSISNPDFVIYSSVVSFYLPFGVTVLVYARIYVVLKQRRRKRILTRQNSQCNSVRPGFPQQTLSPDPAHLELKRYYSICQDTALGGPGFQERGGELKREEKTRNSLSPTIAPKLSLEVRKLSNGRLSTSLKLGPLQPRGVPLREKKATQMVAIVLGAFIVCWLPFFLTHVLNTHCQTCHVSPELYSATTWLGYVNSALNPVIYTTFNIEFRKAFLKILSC
Protocol: (§1) The cells were harvested 48 h post-transfection, washed three times with cold PBS and stored at −80° C. prior to use. The pellet was suspended in cold 50 mM Tris-HCl buffer containing 10 mM EDTA (pH 7.4) and homogenized with a Polytron (Kinematica AG, Basel, Switzerland) for 20-30 sec at 12.000 rpm. After centrifugation at 48.000×g for 30 min at 4° C., the pellet was resuspended in cold 10 mM Tris-HCl buffer containing 0.1 mM EDTA (pH 7.4), homogenized, and centrifuged as above. This pellet was further resuspended in a smaller volume of ice cold 10 mM Tris-HCl buffer containing 0.1 mM EDTA (pH 7.4) and homogenized with a Polytron for 20-30 sec at 12.000 rpm. The protein content of this homogenate was determined with the Bio-Rad (Bradford) Protein Assay (Biorad Laboratories GmbH, München, Germany) according to the instructions of the manufacturer using gamma globulin as the standard. This homogenate was stored at −80° C. in aliquots and thawed immediately prior to use.
(§2) Aliquots of membrane preparations were thawed at RT, resupended in assay buffer (D2, D3: 50 mM Tris-HCl, 120 mM NaCl, 5 mM MgCl2, 1 mM EDTA, 5 mM KCl, 1.5 mM CaCl2, pH=7.4; 5-HT2A: 50 mM Tris-HCl, 10 mM MgCl2, 1 mM EGTA, pH=7.4), homogenized with a Polytron for 20-30 sec at 12.000 rpm and adjusted to a final concentration of approximately 7.5 μg protein/well (D2, D3) and 15 μg protein/well (5-HT2A), respectively.
(§3) The binding affinity (Ki) of the compounds was determined using radioligand binding. […] The nonspecific binding was determined with equally composed reaction mixtures in the presence of 10 μM unlabelled spiperone. Per well 45 μl of Microscint 40 (Perkin Elmer, Schwerzenbach, Switzerland) was added, plates for sealed, shaken for 20 min and counted for 3 min on a Topcount Microplate Scintillation Counter (Canberra Packard SA, Zürich, Switzerland) with quenching correction.
(§4) The CPM value for each duplicate of a concentration of competing compound was averaged (y1), then the % specific binding was calculated according to the equation (((y1−non-specific)/(total binding-non-specific))×100). Graphs were plotted with the % specific binding using XLfit, a curve fitting program that iteratively plots the data using Levenburg Marquardt algorithm. The single site competition analysis equation used was y=A+((B−A)/(+((x/C)^D))), where y is the % specific binding, A is the minimum y, B is the maximum y, C is the IC50, x is the log10 of the concentration of the competing compound and D is the slope of the curve (the Hill Coefficient). […] The affinity constant (Ki) was calculated using the Cheng-Prusoff equation KI =(IC50/1+([L]/Kd), where [L] is the concentration of radioligand and Kd is the dissociation constant of the radioligand at the receptor as determined by the saturation isotherm.

[2] = biological target: T2, human 5-HT2A serotonin receptor (Homo sapiens, UniProt P28223); test: Radioligand binding, human 5-HT2A receptor ([3H]-ketanserin); settings: second value of the cell; membranes of transfected HEK-293 EBNA cells, 1.1 nM [3H]-ketanserin; read-out: Ki(nM) D3/5HT2A/D2: 5HT2A
T2 construct: expressed in transfected cells; host or cells: HEK-293 EBNA cells (transient transfection), membrane preparation
T2 sequence (P28223 whole entry): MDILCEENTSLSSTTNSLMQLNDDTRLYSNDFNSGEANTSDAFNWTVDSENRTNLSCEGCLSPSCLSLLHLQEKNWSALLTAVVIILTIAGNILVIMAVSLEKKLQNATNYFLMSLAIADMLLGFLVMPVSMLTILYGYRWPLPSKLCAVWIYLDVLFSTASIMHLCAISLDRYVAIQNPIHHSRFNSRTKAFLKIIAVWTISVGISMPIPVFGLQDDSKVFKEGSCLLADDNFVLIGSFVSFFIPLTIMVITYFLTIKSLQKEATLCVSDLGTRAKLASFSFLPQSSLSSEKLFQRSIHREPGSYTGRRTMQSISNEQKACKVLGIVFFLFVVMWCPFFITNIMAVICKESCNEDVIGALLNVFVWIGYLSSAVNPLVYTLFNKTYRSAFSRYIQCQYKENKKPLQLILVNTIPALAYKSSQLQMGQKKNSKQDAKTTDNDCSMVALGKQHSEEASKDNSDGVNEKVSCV
Protocol: as §1, §2, §3, §4

[3] = biological target: T3, human D2 dopamine receptor (Homo sapiens, UniProt P14416); test: Radioligand binding, human D2 receptor ([3H]-spiperone); settings: third value of the cell; membranes of transfected HEK-293 EBNA cells, 0.7 nM [3H]-spiperone; read-out: Ki(nM) D3/5HT2A/D2: D2
T3 construct: expressed in transfected cells; host or cells: HEK-293 EBNA cells (transient transfection), membrane preparation
T3 sequence (P14416 whole entry): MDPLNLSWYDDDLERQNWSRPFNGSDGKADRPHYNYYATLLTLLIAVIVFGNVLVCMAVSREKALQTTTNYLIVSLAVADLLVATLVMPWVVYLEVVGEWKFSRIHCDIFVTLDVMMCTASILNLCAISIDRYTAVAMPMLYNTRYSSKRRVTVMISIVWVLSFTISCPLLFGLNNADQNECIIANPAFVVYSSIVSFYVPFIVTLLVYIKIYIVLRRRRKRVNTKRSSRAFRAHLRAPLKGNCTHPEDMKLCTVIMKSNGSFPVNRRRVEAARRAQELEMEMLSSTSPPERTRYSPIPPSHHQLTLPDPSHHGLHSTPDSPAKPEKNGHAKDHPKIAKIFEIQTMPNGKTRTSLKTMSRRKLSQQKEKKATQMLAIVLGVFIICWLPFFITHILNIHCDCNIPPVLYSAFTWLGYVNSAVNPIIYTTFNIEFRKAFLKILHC
Protocol: as §1, §2, §3, §4

Molecule | Ki [1] | Ki [2] | Ki [3]
Cc1ccc(NC(=O)N[C@H]2CC[C@H](CCN3CCC(C(=O)c4ccc(F)cc4)CC3)CC2)cc1 [Example 41, Trans-1-(4-{2-[4-(4-Fluoro-benzoyl)-piperidin-1-yl]-ethyl}-cyclohexyl)-3-p-tolyl-urea] | 4 nM | 11 nM | 677 nM
CN(C(=O)N[C@H]1CC[C@H](CCN2CCC(C(=O)c3ccc(F)cc3)CC2)CC1)c1ccc(Cl)cc1 [Example 42, Trans-1-(4-Chloro-phenyl)-3-(4-{2-[4-(4-fluoro-benzoyl)-piperidin-1-yl]-ethyl}-cyclohexyl)-1-methyl-urea] | 146 nM | 11 nM | 352 nM
CN(C)C(=O)N[C@H]1CC[C@H](CCN2CCC(C(=O)c3ccc(F)cc3)CC2)CC1 [Example 42A7, Trans-3-(4-{2-[4-(4-Fluoro-benzoyl)-piperidin-1-yl]-ethyl}-cyclohexyl)-1,1-dimethyl-urea] | 86 nM | 26 nM | 176 nM
COCCC(=O)N[C@H]1CC[C@H](CCN2CCC(F)(C(=O)c3ccc(F)cc3)CC2)CC1 [Example 50, N-trans (4-{2-[4-Fluoro-4-(4-fluoro-benzoyl)-piperidin-1-yl]-ethyl}-cyclohexyl)-3-methoxy-propionamide] | 29 nM | 2 nM | 288 nM
Cc1nc(-c2cccc(C(=O)N[C@H]3CC[C@H](CCN4CCC(O)(C(=O)c5ccc(F)cc5)CC4)CC3)c2)no1 [Example 57, N-trans (4-{2-[4-(4-Fluoro-benzoyl)-4-hydroxy-piperidin-1-yl]-ethyl}-cyclohexyl)-3-(5-methyl-[1,2,4]oxadiazol-3-yl)-benzamide] | 53 nM | 21 nM | 1330 nM
COCCC(=O)N[C@H]1CC[C@H](CCN2CCC(C(=O)c3ccc(F)cc3F)CC2)CC1 [Example 58, N-trans (4-{2-[4-(2,4-Difluoro-benzoyl)-piperidin-1-yl]-ethyl}-cyclohexyl)-3-methoxy-propionamide] | 19 nM | 80 nM | 3540 nM
O=C(CO)NC1CCC(CCN2CCC(C(=O)c3ccc(F)cc3F)CC2)CC1 (stereo not drawn) [Example 63A14, N-(4-{2-[4-(2,4-Difluoro-benzoyl)-piperidin-1-yl]-ethyl}-cyclohexyl)-2-hydroxy-acetamide] | 44 nM | 83 nM | 8540 nM
O=C(Nc1ccc(Cl)cc1)N[C@H]1CC[C@H](CCN2CCC(C(=O)c3ccc(F)cc3F)CC2)CC1 [Example 64, 1-(4-Chloro-phenyl)-3-trans (4-{2-[4-(2,4-difluoro-benzoyl)-piperidin-1-yl]-ethyl}-cyclohexyl)-urea] | 4 nM | 26 nM | 4000 nM
CC(=O)N[C@H]1CC[C@H](CCN2CCC(C(=O)c3ccccc3Cl)CC2)CC1 [Example 72, N-trans (4-{2-[4-(2-Chloro-benzoyl)-piperidin-1-yl]-ethyl}-cyclohexyl)-acetamide] | 39 nM | 26 nM | 2130 nM
Trans-1-(4-Chloro-phenyl)-3-(4-{2-[4-(4-fluoro-benzoyl)-piperidin-1-yl]-ethyl}-cyclohexyl)-urea [Example 39] | 2 nM | 3 nM | 1840 nM
Trans-1-(4-Ethoxy-phenyl)-3-(4-{2-[4-(4-fluoro-benzoyl)-piperidin-1-yl]-ethyl}-cyclohexyl)-urea [Example 40] | 8 nM | 9 nM | 502 nM
